Source: paper PMC6823631 (Journal of immunology (Baltimore, Md. : 1950), 2019)
Blank lines part the entries; values can stand above or below the compound they belong to.

Columns and labels:
Assay in all cases: fluorescence quenching titration of antibody tryptophan
IgE = assay type: binding
[1] = biological target: penicillin G specific IgG (IgG^Pen, monoclonal antibody clone P2B9); assay type: binding, Mus musculus
[2] = biological target: anti-dansyl IgE (IgE^dansyl, clone 27-74); assay type: binding

Kd (IgE): 1800 ± 300 nM
Compound: O=C(O)Cc1ccc2ccccc2c1 [Napht, 2-naphteleneacetic acid]

Kd [1]: 20000 ± 4000 nM
Compound: Benzylpenicilloyl

Kd [2]: 29.9 ± 10 nM
Compound: dansyl
